System: MV-4-11 cells
Experiment: Gene expression microarray analysis (Affymetrix PrimeView) and GSEA
Assay type: cell-based, human
Design: RFU PODN (11730768_x_at) / Fold change /veh PODN (11730768_x_at) / RFU LINC00158 (11744669_a_at) / Fold change /veh LINC00158 (11744669_a_at) / RFU DUSP10 (11751237_a_at) / Fold change /veh DUSP10 (11751237_a_at) / RFU ID3 (11757404_x_at) / Fold change /veh ID3 (11757404_x_at) / RFU PLEKHG5 (11737974_s_at) / Fold change /veh PLEKHG5 (11737974_s_at) / RFU LRRC4B (11730491_at) / Fold change /veh LRRC4B (11730491_at) / RFU GIMAP4 (11747438_a_at) / Fold change /veh GIMAP4 (11747438_a_at) / RFU KRT8 (11758183_x_at) / Fold change /veh KRT8 (11758183_x_at) / RFU CNN1 (11734310_a_at) / Fold change /veh CNN1 (11734310_a_at) / RFU VPS37D (11726825_at) / Fold change /veh VPS37D (11726825_at) / RFU C10orf10 (11716522_x_at) / Fold change /veh C10orf10 (11716522_x_at) / RFU KIR2DL2 /// KIR2DL4 /// KIR2DL5A /// KIR2DL5B /// KIR2DS1 /// KIR2DS2 /// KIR2DS3 /// KIR2DS4 /// KIR3DL3 /// KIR3DL3 /// KIR3DS1 (11738374_at) / Fold change /veh KIR2DL2 /// KIR2DL4 /// KIR2DL5A /// KIR2DL5B /// KIR2DS1 /// KIR2DS2 /// KIR2DS3 /// KIR2DS4 /// KIR3DL3 /// KIR3DL3 /// KIR3DS1 (11738374_at) / RFU C1QL1 (11718748_at) / Fold change /veh C1QL1 (11718748_at) / RFU TMPRSS4 (11747572_a_at) / Fold change /veh TMPRSS4 (11747572_a_at) / RFU HAMP (11756126_x_at) / Fold change /veh HAMP (11756126_x_at) / RFU RNFT2 (11725882_a_at) / Fold change /veh RNFT2 (11725882_a_at) / RFU NR4A2 (11747474_a_at) / Fold change /veh NR4A2 (11747474_a_at) / RFU ABCC12 (11746883_a_at) / Fold change /veh ABCC12 (11746883_a_at) / RFU TMEM136 (11760407_x_at) / Fold change /veh TMEM136 (11760407_x_at) / RFU CLDN22 /// WWC2 (11732394_at) / Fold change /veh CLDN22 /// WWC2 (11732394_at) / RFU HLA-DPB1 (11760878_x_at) / Fold change /veh HLA-DPB1 (11760878_x_at) / RFU SPINT1 (11716480_a_at) / Fold change /veh SPINT1 (11716480_a_at) / RFU GAP43 (11754022_s_at) / Fold change /veh GAP43 (11754022_s_at) / RFU A4GNT (11735810_at) / Fold change /veh A4GNT (11735810_at) / RFU PRB3 (11715151_x_at) / Fold change /veh PRB3 (11715151_x_at) / RFU TUBB4B (11761932_at) / Fold change /veh TUBB4B (11761932_at) / RFU CAPN14 (11732068_a_at) / Fold change /veh CAPN14 (11732068_a_at) / RFU TMCC2 (11721928_a_at) / Fold change /veh TMCC2 (11721928_a_at) / RFU IRGQ (11745062_a_at) / Fold change /veh IRGQ (11745062_a_at) / RFU FAM174B (11720279_a_at) / Fold change /veh FAM174B (11720279_a_at) / RFU TMPRSS4 (11748680_a_at) / Fold change /veh TMPRSS4 (11748680_a_at) / RFU FAM212B (11763350_a_at) / Fold change /veh FAM212B (11763350_a_at) / RFU PLEKHG5 (11743358_a_at) / Fold change /veh PLEKHG5 (11743358_a_at) / RFU ZSCAN30 (11745921_a_at) / Fold change /veh ZSCAN30 (11745921_a_at) / RFU CMKLR1 (11741424_a_at) / Fold change /veh CMKLR1 (11741424_a_at) / RFU LOC101060620 /// MAPK8IP1 (11723275_at) / Fold change /veh LOC101060620 /// MAPK8IP1 (11723275_at) / RFU SPTSSB (11747773_x_at) / Fold change /veh SPTSSB (11747773_x_at) / RFU PRSS12 (11739890_at) / Fold change /veh PRSS12 (11739890_at) / RFU BIN1 (11741810_x_at) / Fold change /veh BIN1 (11741810_x_at) / RFU WNT11 (11732464_a_at) / Fold change /veh WNT11 (11732464_a_at) / RFU C10orf10 (11716521_a_at) / Fold change /veh C10orf10 (11716521_a_at) / RFU C5orf56 (11738089_at) / Fold change /veh C5orf56 (11738089_at) / RFU CYB561 (11721691_x_at) / Fold change /veh CYB561 (11721691_x_at) / RFU ANKRD19P (11752326_a_at) / Fold change /veh ANKRD19P (11752326_a_at) / RFU OR2T12 /// OR2T33 /// OR2T8 (11738714_s_at) / Fold change /veh OR2T12 /// OR2T33 /// OR2T8 (11738714_s_at) / RFU VCAN (11748164_a_at) / Fold change /veh VCAN (11748164_a_at) / RFU JSRP1 (11732532_at) / Fold change /veh JSRP1 (11732532_at) / RFU KRTAP10-11 (11738290_x_at) / Fold change /veh KRTAP10-11 (11738290_x_at) / RFU MYO3A (11730013_a_at) / Fold change /veh MYO3A (11730013_a_at) / RFU EBF3 (11725865_a_at) / Fold change /veh EBF3 (11725865_a_at) / RFU CAMK2N1 (11719241_x_at) / Fold change /veh CAMK2N1 (11719241_x_at) / RFU C5orf56 (11738088_a_at) / Fold change /veh C5orf56 (11738088_a_at) / RFU OLFML3 (11715873_a_at) / Fold change /veh OLFML3 (11715873_a_at) / RFU LOC100653217 /// NTM (11731650_a_at) / Fold change /veh LOC100653217 /// NTM (11731650_a_at) / RFU MAPK11 (11762145_a_at) / Fold change /veh MAPK11 (11762145_a_at) / RFU FIZ1 (11724087_x_at) / Fold change /veh FIZ1 (11724087_x_at) / RFU OASL (11726364_x_at) / Fold change /veh OASL (11726364_x_at) / RFU SOX15 (11748057_x_at) / Fold change /veh SOX15 (11748057_x_at) / RFU CD79A (11719716_a_at) / Fold change /veh CD79A (11719716_a_at) / RFU HIST1H1D (11736915_at) / Fold change /veh HIST1H1D (11736915_at) / RFU CASKIN2 (11723855_a_at) / Fold change /veh CASKIN2 (11723855_a_at) / RFU LOC730098 (11760151_x_at) / Fold change /veh LOC730098 (11760151_x_at) / RFU OR4N2 (11742367_at) / Fold change /veh OR4N2 (11742367_at) / RFU PRRT2 (11749266_a_at) / Fold change /veh PRRT2 (11749266_a_at) / RFU SNX32 (11753110_a_at) / Fold change /veh SNX32 (11753110_a_at) / RFU CDHR5 (11726645_a_at) / Fold change /veh CDHR5 (11726645_a_at) / RFU RCAN1 (11760418_a_at) / Fold change /veh RCAN1 (11760418_a_at) / RFU FAM167A (11723789_a_at) / Fold change /veh FAM167A (11723789_a_at) / RFU FAM26E (11764081_at) / Fold change /veh FAM26E (11764081_at) / RFU ISYNA1 (11749810_s_at) / Fold change /veh ISYNA1 (11749810_s_at) / RFU ACY1 (11761880_at) / Fold change /veh ACY1 (11761880_at) / RFU 11764098_at / Fold change /veh 11764098_at / RFU SAMD14 (11745864_x_at) / Fold change /veh SAMD14 (11745864_x_at) / RFU NPB (11741838_a_at) / Fold change /veh NPB (11741838_a_at) / RFU TMPRSS6 (11731388_a_at) / Fold change /veh TMPRSS6 (11731388_a_at) / RFU KRTAP10-2 (11738614_at) / Fold change /veh KRTAP10-2 (11738614_at) / RFU ARHGAP8 /// PRR5-ARHGAP8 (11727945_x_at) / Fold change /veh ARHGAP8 /// PRR5-ARHGAP8 (11727945_x_at) / RFU KRTAP5-7 /// NADSYN1 (11734609_at) / Fold change /veh KRTAP5-7 /// NADSYN1 (11734609_at) / RFU RASL12 (11751679_a_at) / Fold change /veh RASL12 (11751679_a_at) / RFU CDKN2B (11736163_a_at) / Fold change /veh CDKN2B (11736163_a_at) / RFU PRF1 (11729649_at) / Fold change /veh PRF1 (11729649_at) / RFU, ZNF638 /// ZNF638-IT1 / Fold change vs veh, ZNF638 /// ZNF638-IT1 / RFU, PANK3 / Fold change vs veh, PANK3 / RFU, SH3YL1 / Fold change vs veh, SH3YL1 / RFU, ZEB2 / Fold change vs veh, ZEB2 / RFU, NRIP1 / Fold change vs veh, NRIP1 / RFU, PTTG1IP / Fold change vs veh, PTTG1IP / RFU, CAPN2 / Fold change vs veh, CAPN2 / RFU, MED14 / Fold change vs veh, MED14 / RFU, SNORA58 / Fold change vs veh, SNORA58 / RFU, C1orf63 / Fold change vs veh, C1orf63 / RFU, LRRFIP1 / Fold change vs veh, LRRFIP1 / RFU, NDUFAF7 / Fold change vs veh, NDUFAF7 / RFU, SLC12A2 / Fold change vs veh, SLC12A2 / RFU, IBTK / Fold change vs veh, IBTK / RFU, ESF1 / Fold change vs veh, ESF1 / Fold change vs veh, TMEM50B / RFU, TAOK1 / Fold change vs veh, TAOK1 / RFU, ACBD3 / Fold change vs veh, ACBD3 / RFU, TMA16 / Fold change vs veh, TMA16 / RFU, RWDD3 / Fold change vs veh, RWDD3 / RFU, BCAT1 / Fold change vs veh, BCAT1 / RFU, EDEM3 / Fold change vs veh, EDEM3 / RFU, TMEM33 / Fold change vs veh, TMEM33 / RFU, WDR75 / Fold change vs veh, WDR75 / RFU, AHCTF1 / Fold change vs veh, AHCTF1 / RFU, TFRC / Fold change vs veh, TFRC / RFU, ZDHHC17 / Fold change vs veh, ZDHHC17 / RFU, NOM1 / Fold change vs veh, NOM1 / RFU, ARL8B / Fold change vs veh, ARL8B / RFU, ZBTB11 / Fold change vs veh, ZBTB11 / RFU, TAMM41 / Fold change vs veh, TAMM41 / RFU, KIAA1704 /// LOC100996395 / Fold change vs veh, KIAA1704 /// LOC100996395 / RFU, ING1 / Fold change vs veh, ING1 / RFU, TRMT61B / Fold change vs veh, TRMT61B / RFU, FUBP3 / Fold change vs veh, FUBP3 / RFU, TP53 / Fold change vs veh, TP53 / RFU, TNKS2 / Fold change vs veh, TNKS2 / RFU, ZFP14 / Fold change vs veh, ZFP14 / RFU, ACTR2 / Fold change vs veh, ACTR2 / RFU, PPP3R1 / Fold change vs veh, PPP3R1 / RFU, PIK3R1 / Fold change vs veh, PIK3R1 / RFU, HNRNPA1 / Fold change vs veh, HNRNPA1 / RFU, RNF170 / Fold change vs veh, RNF170 / RFU, ZNF28 / Fold change vs veh, ZNF28 / RFU, RNGTT / Fold change vs veh, RNGTT / RFU, OGT / Fold change vs veh, OGT / RFU, BRD1 / Fold change vs veh, BRD1 / RFU, MARS / Fold change vs veh, MARS / RFU, ZNF655 / Fold change vs veh, ZNF655 / RFU, FAHD1 / Fold change vs veh, FAHD1 / RFU, BDP1 / Fold change vs veh, BDP1 / RFU, LRRCC1 / Fold change vs veh, LRRCC1 / RFU, ARID1A / Fold change vs veh, ARID1A / RFU, ZNF146 / Fold change vs veh, ZNF146 / RFU, ZNF330 / Fold change vs veh, ZNF330 / RFU, GPN3 / Fold change vs veh, GPN3 / RFU, C9orf123 / Fold change vs veh, C9orf123 / RFU, N4BP2L2 / Fold change vs veh, N4BP2L2 / RFU, ARFIP1 / Fold change vs veh, ARFIP1 / RFU, FAM179B / Fold change vs veh, FAM179B / RFU, BCL10 / Fold change vs veh, BCL10 / RFU, UHRF1BP1L / Fold change vs veh, UHRF1BP1L / RFU, BET1 / Fold change vs veh, BET1 / RFU, CNOT2 / Fold change vs veh, CNOT2 / RFU, ZNF268 / Fold change vs veh, ZNF268 / Fold change vs veh, ZNF507 / RFU, DGCR2 / Fold change vs veh, DGCR2 / RFU, WDSUB1 / Fold change vs veh, WDSUB1 / Fold change vs veh, HSP90B1 /// MIR3652 / RFU, ADSS / Fold change vs veh, ADSS / RFU, GK / Fold change vs veh, GK / RFU, ZNF148 / Fold change vs veh, ZNF148 / RFU, TAF9 / Fold change vs veh, TAF9 / RFU, SLC1A5 / Fold change vs veh, SLC1A5 / RFU, SLMO2 / Fold change vs veh, SLMO2 / RFU, ABCC4 / Fold change vs veh, ABCC4 / RFU, LOC101060439 /// RAP1B / Fold change vs veh, LOC101060439 /// RAP1B / RFU, RFX7 / Fold change vs veh, RFX7 / RFU, GTPBP10 / Fold change vs veh, GTPBP10 / RFU, CNEP1R1 / Fold change vs veh, CNEP1R1 / RFU, BIVM-ERCC5 /// ERCC5 / Fold change vs veh, BIVM-ERCC5 /// ERCC5 / RFU, ILF3 / Fold change vs veh, ILF3 / RFU 11762660_at / Fold change /veh 11762660_at / RFU VCAN (11757783_s_at) / Fold change /veh VCAN (11757783_s_at) / RFU DDX43 (11728927_at) / Fold change /veh DDX43 (11728927_at) / RFU KRT8 (11758188_x_at) / Fold change /veh KRT8 (11758188_x_at) / RFU NKD1 (11759106_at) / Fold change /veh NKD1 (11759106_at) / RFU SRD5A1 (11742802_a_at) / Fold change /veh SRD5A1 (11742802_a_at) / RFU TPSAB1 /// TPSB2 (11721975_s_at) / Fold change /veh TPSAB1 /// TPSB2 (11721975_s_at) / RFU GSTM3 (11746129_a_at) / Fold change /veh GSTM3 (11746129_a_at) / RFU IL23R (11737362_x_at) / Fold change /veh IL23R (11737362_x_at) / RFU TMEM51 (11727254_a_at) / Fold change /veh TMEM51 (11727254_a_at) / RFU PIWIL2 (11732686_x_at) / Fold change /veh PIWIL2 (11732686_x_at) / RFU ORM1 (11744905_x_at) / Fold change /veh ORM1 (11744905_x_at) / RFU CCDC152 (11743942_at) / Fold change /veh CCDC152 (11743942_at) / RFU ECM1 (11717891_a_at) / Fold change /veh ECM1 (11717891_a_at) / RFU IL23R (11748794_a_at) / Fold change /veh IL23R (11748794_a_at) / RFU TNFAIP8L3 (11732012_x_at) / Fold change /veh TNFAIP8L3 (11732012_x_at) / RFU MBOAT4 (11741988_at) / Fold change /veh MBOAT4 (11741988_at) / RFU 11764193_at / Fold change /veh 11764193_at / RFU TMEM53 (11763286_at) / Fold change /veh TMEM53 (11763286_at) / RFU MAGEB2 (11727129_at) / Fold change /veh MAGEB2 (11727129_at) / RFU TMEM200A (11744735_a_at) / Fold change /veh TMEM200A (11744735_a_at) / RFU CCDC152 (11751479_a_at) / Fold change /veh CCDC152 (11751479_a_at) / RFU FAM211A (11726209_a_at) / Fold change /veh FAM211A (11726209_a_at) / RFU RGS16 (11746705_a_at) / Fold change /veh RGS16 (11746705_a_at) / RFU VCAN (11755009_s_at) / Fold change /veh VCAN (11755009_s_at) / RFU RHOB (11743442_s_at) / Fold change /veh RHOB (11743442_s_at) / RFU RGS16 (11720943_a_at) / Fold change /veh RGS16 (11720943_a_at) / RFU RGS16 (11720944_at) / Fold change /veh RGS16 (11720944_at) / RFU, VPS4B / Fold change vs veh, VPS4B / RFU, CREB1 / Fold change vs veh, CREB1 / RFU, DNAJC13 / Fold change vs veh, DNAJC13 / RFU, GNAQ / Fold change vs veh, GNAQ / RFU, CDK5R1 / Fold change vs veh, CDK5R1 / RFU, ZRANB3 / Fold change vs veh, ZRANB3 / RFU, CUL4A / Fold change vs veh, CUL4A / RFU, CCNY / Fold change vs veh, CCNY / RFU, UFL1 / Fold change vs veh, UFL1 / RFU, COG3 / Fold change vs veh, COG3 / RFU, DIAPH2 / Fold change vs veh, DIAPH2 / RFU, SKA2 / Fold change vs veh, SKA2 / RFU, AFF3 / Fold change vs veh, AFF3 / RFU, LMF1 / Fold change vs veh, LMF1 / RFU, IPO11 / Fold change vs veh, IPO11 / RFU, DFFB / Fold change vs veh, DFFB / RFU, FOXP1 / Fold change vs veh, FOXP1 / RFU, CARD8 / Fold change vs veh, CARD8 / RFU, STRN3 / Fold change vs veh, STRN3 / RFU, ADK / Fold change vs veh, ADK / RFU, RASSF2 / Fold change vs veh, RASSF2 / RFU, WIPF1 / Fold change vs veh, WIPF1 / RFU, LARP1B / Fold change vs veh, LARP1B / RFU, RASA1 / Fold change vs veh, RASA1 / RFU, RB1 / Fold change vs veh, RB1 / RFU, PPFIA1 / Fold change vs veh, PPFIA1 / RFU, MAT2A / Fold change vs veh, MAT2A / RFU, CCT5 / Fold change vs veh, CCT5 / RFU, WDR92 / Fold change vs veh, WDR92 / RFU, CUX1 / Fold change vs veh, CUX1 / RFU, TTC7A / Fold change vs veh, TTC7A / RFU, TMEM135 / Fold change vs veh, TMEM135 / RFU, DEPTOR / Fold change vs veh, DEPTOR / RFU, CPM / Fold change vs veh, CPM / RFU, DNAJB6 / Fold change vs veh, DNAJB6 / RFU, CACNA2D3 / Fold change vs veh, CACNA2D3 / RFU, DTX4 / Fold change vs veh, DTX4 / RFU, TFCP2 / Fold change vs veh, TFCP2 / RFU, GMCL1 /// GMCL1P1 / Fold change vs veh, GMCL1 /// GMCL1P1 / RFU, AEBP2 / Fold change vs veh, AEBP2 / RFU, SNHG1 /// SNORD22 /// SNORD25 /// SNORD26 /// SNORD27 /// SNORD28 /// SNORD29 /// SNORD31 / Fold change vs veh, SNHG1 /// SNORD22 /// SNORD25 /// SNORD26 /// SNORD27 /// SNORD28 /// SNORD29 /// SNORD31 / Fold change (Aza/veh), C12orf56 (ProbeSet 11735607_a_at) / Fold change (ACY-1035/veh), C12orf56 (ProbeSet 11735607_a_at) / Fold change (Aza/veh), FGFR1OP (ProbeSet 11751329_s_at) / Fold change (ACY-1035/veh), FGFR1OP (ProbeSet 11751329_s_at) / Fold change (Aza/veh), VPS36 (ProbeSet 11739960_a_at) / Fold change (ACY-1035/veh), VPS36 (ProbeSet 11739960_a_at) / RFU SYPL1 (11715823_x_at) / Fold change /veh SYPL1 (11715823_x_at) / RFU IGFBP7 (11715501_s_at) / Fold change /veh IGFBP7 (11715501_s_at) / RFU REEP3 (11722064_at) / Fold change /veh REEP3 (11722064_at) / RFU IGLL1 (11728026_x_at) / Fold change /veh IGLL1 (11728026_x_at): dose or concentration left out as unconfirmed
Conditions: MV-4-11 cells, 48 hours

Nc1ccc(-c2cccs2)cc1NC(=O)c1ccc2c(c1)cc(C1CC1)n2CCN1CCOCC1 [ACY-1035]
Fold change /veh VCAN (11748164_a_at): 1.07
